Here are results for 18 molecules from patent publication US20090036472A1, “AZABICYCLO DERIVATIVES AS ANTI-INFLAMMATORY AGENTS” (priority 2005, published 2009).

activated p38, sequence (Q16539 whole entry): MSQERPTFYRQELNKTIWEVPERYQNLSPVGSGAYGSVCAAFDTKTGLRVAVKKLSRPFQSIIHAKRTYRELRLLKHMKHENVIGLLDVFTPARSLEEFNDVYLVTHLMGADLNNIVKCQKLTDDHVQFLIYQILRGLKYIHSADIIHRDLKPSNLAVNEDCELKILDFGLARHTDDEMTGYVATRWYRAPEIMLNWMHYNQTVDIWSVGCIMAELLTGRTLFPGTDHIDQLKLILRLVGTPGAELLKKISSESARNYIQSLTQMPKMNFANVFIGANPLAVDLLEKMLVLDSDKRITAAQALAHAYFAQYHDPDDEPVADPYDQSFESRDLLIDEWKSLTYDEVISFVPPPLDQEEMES

One data set has as its target activated p38 (Homo sapiens, UniProt Q16539). The data set can be described thus: p38 inhibition assay: inhibition of phosphorylation of EGF receptor peptide. In kind it is biochemical. As to conditions: compound behaviour in the assay. As for the experimental part: p38 Inhibition Assays—Inhibition of Phosphorylation of EGF Receptor Peptide
This assay was carried out in the presence of 10 mM MgCl2, 25 mM β-glycerophosphate, 10% glycerol and 100 mM HEPES buffer at pH 7.6. For a typical IC50 determination, a stock solution was prepared containing all of the above components and activated p38 (5 nM). The stock solution was aliquoted into vials. A fixed volume of DMSO or inhibitor in DMSO (final concentration of DMSO in reaction was 5%) was introduced to each vial, mixed and incubated for 15 minutes at room temperature.
EGF receptor peptide, […], a phosphoryl acceptor in p38-catalysed kinase reaction (1), was added to each vial to a final concentration of 200 μM. The kinase reaction was initiated with ATP (100 μm) and the vials were incubated at 30C. After 30 minutes, the reactions were quenched with equal volume of 10% trifluoroacetic acid (TFA).
The phosphorylated peptide was quantified by HPLC analysis. Separation of the phosphorylated peptide from the unphosphorylated peptide was achieved on a reverse phase column (Deltapak, 5 μM, C18 100D, part no. 011795) with a binary gradient of water and acetonitrile, each containing 0.1% TFA. IC50 (concentration of inhibitor yielding 50% inhibition) was determined by plotting the % activity remaining against inhibitor concentration.
For `O=c1c(-c2ccccc2F)cc2cnc(NN3CC4CCCC4C3)nc2n1Cc1ccc(F)cc1` (stereo not drawn) [Compound No. 13, 6-(2-Fluorophenyl)-2-(3-azabicyclo[3.3.0]oct-3-yl-amino)-8-(4-fluorobenzyl)-pyrido[2,3-d]pyrimidin-7(8H)-one], the “observation in the p38 enzyme assay” value is “formed a precipitate”.

A further data set deals with TNF-α release from LPS-stimulated human peripheral blood mononuclear cells. The data set can be described thus: Cell based assay for TNF-α release, LPS stimulation of human PBMNC's. To be noted: PBMC, LPS 20 ng/ml, overnight, ELISA, collective range for the listed compounds, units given within the value (μM to nM), read-out: IC50 (TNF-α release; printed as IC50 for p38 inhibitory activity). As for the experimental part:
Cell based Assay for TNF-α release
Method of Isolation of Human Peripheral Blood Mononuclear Cells:
Human whole blood was collected in vacutainer tubes containing EDTA as an anti coagulant. A blood sample (7 ml) was carefully layered over 5 ml PMN Cell Isolation Medium (Robbins Scientific) in a 15 ml round bottom centrifuge tubes. The sample was centrifuged at 450-500×g for 30-35 minutes in a swing-out rotor at room temperature. After centrifugation the top band of cells were removed and washed 3 times with PBS w/o calcium or magnesium. The cells were centrifuged at 400×g for 10 minutes at room temperature. The cells were resuspended in Macrophage Serum Free Medium (Gibco BRL) at concentration of 2 million cells/ml.
LPS Stimulation of Human PBMNC's:
PBM cells (0.1 ml; 2 million/ml) were co-incubated with 0.1 ml of compound (10-0.41 μM, final concentration) for 1 hour in flat bottom 96 well microtiter plate. Compounds were dissolved in DMSO initially and diluted in TCM for a final concentration of 0.1% DMSO. LPS (Cal biochem, 20 ng/ml, final concentration) was then added at volume of 0.010 ml. Cultures were incubated overnight at 37° C.). Supernatant were then removed and tested by ELISA for TNF-α release. Viability was analyzed using MTT. After 0.1 ml supernatant was collected, 0.1 ml of 0.25 mg/ml of MTT was added to remaining 0.1 ml of cells. The cells were incubated at 37° C. for 2-4 hours, then the O.D was measured at 490-650 nm.
The TNF-α levels released in the culture medium was quantitated by ELISA. Inhibitory potency was expressed as IC50.
For orientation: An ELISA detects its analyte on a solid surface through an enzyme-linked reagent.
What is called IC50 is the concentration at which inhibition is half-maximal. For `COCCn1c(=O)c(-c2ccccc2C)cc2cnc(NN3CC4CCCC4C3)nc21` (stereo not drawn) [Compound No. 50, 6-(2-Methylphenyl)-2-(3-azabicyclo[3.3.0]oct-3-yl-amino)-8-(2-methoxyethyl)-pyrido[2,3-d]pyrimidin-7(8H)-one], the IC50 was in the range of 0.14 to 3 µM.

Consider `CCOC(=O)Cn1c(=O)c(-c2ccccc2C)cc2cnc(NN3CC4CCCC4C3)nc21` (stereo not drawn) [Compound No. 44, Ethyl[2-(3-azabicyclo[3.3.0]oct-3-yl-amino)-6-(2-methylphenyl)-7-oxopyrido[2,3-d]pyrimidin-8(7H)-yl]acetate], for which the IC50 lay within 0.14 to 3 µM.

Regarding `CCOCCn1c(=O)c(-c2ccccc2C)cc2cnc(NN3CC4CCCC4C3)nc21` (stereo not drawn) [Compound No. 51, 6-(2-Methylphenyl)-2-(3-azabicyclo[3.3.0]oct-3-yl-amino)-8-(2-ethoxyethyl)pyrido[2,3-d]pyrimidin-7(8H)-one], the IC50 is 0.14 to 3 µM.

With `Cc1ccccc1-c1cc2cnc(NN3CC4CCCC4C3)nc2n(CC(=O)NC2CCC2)c1=O` (stereo not drawn) [Compound No. 47, N-Cyclobutyl-2-[2-(3-azabicyclo[3.3.0]oct-3-yl-amino)-6-(2-methylphenyl)-7-oxopyrido[2,3-d]pyrimidin-8(7H)-yl]acetamide], the IC50 fell in the range of 0.14 to 3 µM.

`CCOC(=O)C(C)n1c(=O)c(-c2ccccc2F)cc2cnc(NN3CC4CCCC4C3)nc21` (stereo not drawn) [Compound No. 20, Ethyl 2-[6-(2-fluorophenyl)-2-(3-azabicyclo[3.3.0]oct-3-yl-amino)-7-oxopyrido[2,3-d]pyrimidin-8(7H)-yl]propanoate]: the IC50 was in the range of 0.14 to 3 µM.

For `Cn1c(=O)c(-c2ccccc2[N+](=O)[O-])cc2cnc(NN3CC4CCCC4C3)nc21` (stereo not drawn) [Compound No. 69, 6-(2-Nitrophenyl)-2-(3-azabicyclo [3.3.0]oct-3-yl-amino)-8-methyl-pyrido[2,3-d]pyrimidin-7(8H)-one], the IC50 fell in the range of 0.14 to 3 µM.

`Cn1c(=O)c(-c2c(Cl)cccc2Cl)cc2cnc(NN3CC4CCCC4C3)nc21` (stereo not drawn) [Compound No. 68, 6-(2,6-Dichlorophenyl)-2-(3-azabicyclo[3.3.0]oct-3-yl-amino)-8-methylpyrido[2,3-d]pyrimidin-7(8H)-one]: the IC50 lay within 0.14 to 3 µM.

With `O=c1c(Oc2ccccc2F)cc2cnc(NN3CC4CCCC4C3)nc2n1C1CC1` (stereo not drawn) [Compound No. 59, 6-(2-Fluorophenoxy)-2-(3-azabicyclo[3.3.0]oct-3-yl-amino)-8-cyclopropyl-pyrido[2,3-d]pyrimidin-7(8H)-one], the IC50 lay within 0.14 to 3 µM.

In the case of `CCOC(=O)C(C)n1c(=O)c(-c2ccccc2C)cc2cnc(NN3CC4CCCC4C3)nc21` (stereo not drawn) [Compound No. 21, Ethyl 2-[6-(2-methylphenyl)-2-(3-azabicyclo [3.3.0]oct-3-yl-amino)-7-oxopyrido[2,3-d]pyrimidin-8(7H)-yl]propanoate], the IC50 lay within 0.14 to 3 µM.

Take `CCCCS(=O)(=O)NCCn1c(=O)c(-c2ccccc2C)cc2cnc(NN3CC4CCCC4C3)nc21` (stereo not drawn) [Compound No. 40, N-{2-[2-(3-azabicyclo[3.3.0]oct-3-yl-amino)-6-(2-methylphenyl)-7-oxopyrido[2,3-d]pyrimidin-8(7H)-yl]ethyl}butane-1-sulfonamide]: the IC50 was in the range of 0.14 to 3 µM.

`O=c1c(-c2ccccc2F)cc2cnc(NN3CC4CCCC4C3)nc2n1C1CCCC1` (stereo not drawn) [Compound No. 22, 6-(2-Fluorophenyl)-2-(3-azabicyclo[3.3.0]oct-3-yl-amino)-8-(cyclopentyl)pyrido[2,3-d]pyrimidin-7(8H)-one]: the IC50 is 0.14 to 3 µM.

`CCOCCn1c(=O)c(-c2ccccc2Cl)cc2cnc(NN3CC4CCCC4C3)nc21` (stereo not drawn) [Compound No. 25, 6-(2-Chlorophenyl)-2-(3-azabicyclo[3.3.0]oct-3-yl-amino)-8-(2-ethoxyethyl)pyrido[2,3-d]pyrimidin-7(8H)-one]: the IC50 lay in the range of 0.14 to 3 µM.

For the molecule `O=c1c(-c2ccccc2F)cc2cnc(NN3CC4CCCC4C3)nc2n1CC1CC1` (stereo not drawn) [Compound No. 23, 6-(2-Fluorophenyl)-2-(3-azabicyclo[3.3.0]oct-3-yl-amino)-8-(cyclopropylmethyl)-pyrido[2,3-d]pyrimidin-7(8H)-one], the IC50 was in the range of 0.14 to 3 µM.

With `Cn1c(=O)c(-c2ccc(F)cc2Cl)cc2cnc(NN3CC4CCCC4C3)nc21` (stereo not drawn) [Compound No. 71, 6-(2-Chloro-4-fluorophenyl)-2-(3-azabicyclo [3.3.0]oct-3-yl-amino)-8-methylpyrido[2,3-d]pyrimidin-7(8H)-one], the IC50 lay in the range of 0.14 to 3 µM.

Regarding `Cn1c(=O)c(-c2ccccc2Cl)cc2cnc(NN3CC4CCCC4C3)nc21` (stereo not drawn) [Compound No. 1, 6-(2-Chlorophenyl)-2-(3-azabicyclo[3.3.0]oct-3-yl-amino)-8-methylpyrido[2,3-d]pyrimidin-7(8H)-one], the IC50 lay within 0.14 to 3 µM.

Regarding `O=c1c(-c2ccccc2Cl)cc2cnc(NN3CC4CCCC4C3)nc2n1C1CC1` (stereo not drawn) [Compound No. 52, 6-(2-Chlorophenyl)-2-(3-azabicyclo[3.3.0]oct-3-yl-amino)-8-cyclopropyl-pyrido[2,3-d]pyrimidin-7(8H)-one], the IC50 fell in the range of 0.14 to 3 µM.

System in a further data set: not given
Assay: not given
Details: not given
For orientation: melting point means the temperature, or range, at which the solid turns liquid. For the molecule `Cc1ccccc1-c1cc2cnc(NN3CC4CCCC4C3)nc2n(C)c1=O` (stereo not drawn) [Compound No. 2, 6-(2-Methylphenyl)-2-(3-azabicyclo[3.3.0]oct-3-yl-amino)-8-methylpyrido[2,3-d]pyrimidin-7(8H)-one], the melting point lay in the range of 69.8 to 79.8 °C.
